Assays:
[1] = Thermal stability of itraconazole; format: physicochemical; details: temperatures up to 300° C.
[2] = aqueous media; cited from earlier work

thermal stability [1]: thermally very stable
SMILES: CCC(C)n1ncn(-c2ccc(N3CCN(c4ccc(OCC5COC(Cn6cncn6)(c6ccc(Cl)cc6Cl)O5)cc4)CC3)cc2)c1=O (single isomer, unassigned; (+)) [itraconazole, (+)-cis-4-[4-[4-[4-[[2-(2,4-dichlorophenyl)-2-(1H-1,2,4-triazol-1-yl-methyl)-1,3-dioxolan-4-yl]methoxy]phenyl]-1-piperazinyl]phenyl]-2,4-dihydro-2-(1-methylpropyl)-3H-1,2,4-triazol-3-one]
solubility [2]: practically insoluble
